What was measured:
Hepatitis C virus [1] = assay: Antiviral activity against HCV genotype 1b Con1 infected in human HuH7 cells assessed as inhibition of viral RNA replication after 3 days by renilla luciferase reporter gene assay; format: functional, organism-based, Hepacivirus hominis; settings: isolate Con1, Huh-7, 72 h
Hepatitis C virus [2] = assay: Antiviral activity against HCV genotype 1a H77 infected in human HuH7 cells assessed as inhibition of viral RNA replication after 3 days by renilla luciferase reporter gene assay; format: functional, organism-based, Hepacivirus hominis; settings: genotype 1a H77, Huh-7, 72 h
[3] = Mean residence time in beagle dog at 0.2 mg/kg, iv; format: ADME, organism-based, Canis lupus familiaris; design: dose 0.2 mg/kg, route intravenous; settings: in vivo
[4] = Half life in beagle dog at 0.2 mg/kg, iv; format: ADME, organism-based, Canis lupus familiaris; design: dose 0.2 mg/kg, route intravenous; settings: in vivo
[5] = Volume of distribution at steady state in beagle dog at 0.2 mg/kg, iv; format: ADME, organism-based, Canis lupus familiaris; design: dose 0.2 mg/kg, route intravenous; settings: in vivo, read-out: Vdss
[6] = Clearance in beagle dog at 0.2 mg/kg, iv; format: ADME, organism-based, Canis lupus familiaris; design: dose 0.2 mg/kg, route intravenous; settings: in vivo
[7] = Oral bioavailability in Sprague-Dawley rat at 2 mg/kg; format: ADME, organism-based; settings: in vivo
[8] = Mean residence time in Sprague-Dawley rat at 1 mg/kg, iv; format: ADME, organism-based; design: dose 1 mg/kg, route intravenous; settings: in vivo
[9] = Half life in Sprague-Dawley rat at 1 mg/kg, iv; format: ADME, organism-based; design: dose 1 mg/kg, route intravenous; settings: in vivo
[10] = Volume of distribution at steady state in Sprague-Dawley rat at 1 mg/kg, iv; format: ADME, organism-based; design: dose 1 mg/kg, route intravenous; settings: in vivo, read-out: Vdss
[11] = Clearance in Sprague-Dawley rat at 1 mg/kg, iv; format: ADME, organism-based; design: dose 1 mg/kg, route intravenous; settings: in vivo
[12] = Ratio of EC50 for HCV genotype 1a to EC50 for HCV genotype 1b; format: functional
Hepatitis C virus [13] = assay: Ratio of EC50 for HCV genotype 1a H77 infected in human HuH7 cells in presence of 10% BSA to EC50 for HCV genotype 1a H77 infected in human HuH7 cells; format: functional, Hepacivirus hominis, Huh-7
Hepatitis C virus [14] = assay: Ratio of EC50 for HCV genotype 1a H77 infected in human HuH7 cells in presence of human serum to EC50 for HCV genotype 1a H77 infected in human HuH7 cells; format: functional, Hepacivirus hominis, Huh-7
Hepatitis C virus [15] = assay: Antiviral activity against HCV genotype 1a H77 infected in human HuH7 cells assessed as inhibition of viral RNA replication after 3 days by renilla luciferase reporter gene assay in presence of 10% BSA; format: functional, organism-based, Hepacivirus hominis; settings: genotype 1a H77, Huh-7, 72 h
Hepatitis C virus [16] = assay: Antiviral activity against HCV genotype 1a H77 infected in human HuH7 cells assessed as inhibition of viral RNA replication after 3 days by renilla luciferase reporter gene assay in presence of human serum; format: functional, organism-based, Hepacivirus hominis; settings: genotype 1a H77, Huh-7, 72 h

| SMILES | EC50 (Hepatitis C virus [1]) [nM] | EC50 (Hepatitis C virus [2]) [nM] | other results |
| --- | --- | --- | --- |
| COC(=O)N[C@H](C(=O)N1CCC[C@H]1c1ncc(-c2ccc3c(c2)C(=O)c2cc(-c4cnc([C@@H]5CCCN5C(=O)[C@@H](NC(=O)OC)C(C)C)[nH]4)ccc2-3)[nH]1)C(C)C | 0.018 | 0.3 |  |
| COC(=O)N[C@H](C(=O)N1CCC[C@H]1c1ncc(-c2ccc(-c3ccc4nc([C@@H]5CCCN5C(=O)[C@@H](NC(=O)OC)C(C)C)[nH]c4c3)cc2)[nH]1)C(C)C | 0.3 | > 44 |  |
| COC(=O)N[C@H](C(=O)N1CCC[C@H]1c1ncc(-c2ccc(C#Cc3ccc4nc([C@@H]5CCCN5C(=O)[C@@H](NC(=O)OC)C(C)C)[nH]c4c3)cc2)[nH]1)C(C)C | 0.011 | 0.38 |  |
| COC(=O)N[C@H](C(=O)N1CCC[C@H]1c1nc2ccc(C#CC#Cc3ccc4nc([C@@H]5CCCN5C(=O)[C@@H](NC(=O)OC)C(C)C)[nH]c4c3)cc2[nH]1)C(C)C | 0.026 | 11 |  |
| CN(C)[C@@H](C(=O)N1CCC[C@H]1C(=O)Nc1ccc(/C=C/c2ccc(NC(=O)[C@@H]3CCCN3C(=O)[C@@H](c3ccccc3)N(C)C)cc2)cc1)c1ccccc1 | 0.1 |  |  |
| COC(=O)N[C@H](C(=O)N1CCC[C@H]1c1nc2ccc(-c3ccc(-c4ccc(-c5ccc6nc([C@@H]7CCCN7C(=O)[C@@H](NC(=O)OC)C(C)C)[nH]c6c5)cc4)cc3)cc2[nH]1)C(C)C | 0.044 | 3.7 |  |
| Cc1ccc(O)c(-c2nn(C)cc2C#Cc2ccc(NC(=O)[C@@H]3COCCN3C(=O)[C@H](NC(=O)OC(C)(C)C)c3ccccc3)cc2)c1 | < 1000 |  | Ratio EC50 [12]: 1000 |
| COC(=O)N[C@H](C(=O)N1CCC[C@H]1c1nc2ccc(-c3cc4cc5sc(-c6ccc7nc([C@@H]8CCCN8C(=O)[C@@H](NC(=O)OC)C(C)C)[nH]c7c6)cc5cc4s3)cc2[nH]1)C(C)C | 0.016 | 0.2 |  |
| COC(=O)N[C@H](C(=O)N1CCC[C@H]1c1ncc(-c2ccc3c(c2)C(C)(C)c2cc(-c4cnc([C@@H]5CCCN5C(=O)[C@@H](NC(=O)OC)C(C)C)[nH]4)ccc2-3)[nH]1)C(C)C | 0.014 | 1.2 |  |
| C[C@H](NC(=O)OCc1ccccc1)C(=O)Nc1cccc(C2S/C(=N\c3cccc(F)c3)N(Cc3ccco3)C2=O)c1 (stereo not given in full) | 580 |  | Ratio EC50 [12]: 1000 |
| COC(=O)N[C@H](C(=O)N1CCC[C@H]1c1nc2ccc(C#Cc3ccc4nc([C@@H]5CCCN5C(=O)[C@@H](NC(=O)OC)C(C)C)[nH]c4c3)cc2[nH]1)C(C)C | 0.14 | > 44 |  |
| COC(=O)N[C@H](C(=O)N1CCC[C@H]1c1ncc(C#Cc2ccc(-c3ccc4nc([C@@H]5CCCN5C(=O)[C@@H](NC(=O)OC)C(C)C)[nH]c4c3)cc2)[nH]1)C(C)C | 0.016 | 2.5 |  |
| C[C@H](NC(=O)c1ccc(Sc2ccc(N)cc2)c(Nc2ncnc3nc(C(C)(C)C)ccc23)c1)c1ccccc1 | 3 | 46 |  |
| O=C(Nc1ccncc1)c1ccc(-c2csc(NC(=O)[C@@H]3CCCN3C(=O)OCc3ccccc3)n2)cc1 | 80 |  | Ratio EC50 [12]: 1000 |
| COC(=O)N[C@H](C(=O)N1CCC[C@H]1c1nc2ccc(-c3ccc4nc([C@@H]5CCCN5C(=O)[C@@H](NC(=O)OC)C(C)C)[nH]c4c3)cc2[nH]1)C(C)C | 35 | > 44 |  |
| COC(=O)N[C@H](C(=O)N1CCC[C@H]1c1nc2ccc(-c3ccc(-c4ccc(-c5cnc([C@@H]6[C@H]7CC[C@H](C7)N6C(=O)[C@@H](NC(=O)OC)C(C)C)[nH]5)cc4)cc3)cc2[nH]1)C(C)C | 0.021 | 0.66 |  |
| COC(=O)N[C@H](C(=O)N1CCC[C@H]1c1ncc(-c2ccc3c(c2)Cc2cc(-c4cnc([C@@H]5CCCN5C(=O)[C@@H](NC(=O)OC)C(C)C)[nH]4)ccc2-3)[nH]1)C(C)C | 0.013 | 0.094 |  |

Further compounds by falling EC50 (Hepatitis C virus [1]), results first:

| EC50 (Hepatitis C virus [1]) [nM] | EC50 (Hepatitis C virus [2]) [nM] | SMILES | other results |
| --- | --- | --- | --- |
| 0.01 | 1.7 | COC(=O)N[C@H](C(=O)N1CCC[C@H]1c1nc2ccc(-c3ccc(-c4ccc5nc([C@@H]6CCCN6C(=O)[C@@H](NC(=O)OC)C(C)C)[nH]c5c4)s3)cc2[nH]1)C(C)C |  |
| 0.009 | 0.21 | COC(=O)N[C@H](C(=O)N1CCC[C@H]1c1ncc(-c2ccc(-c3ccc(-c4cnc([C@@H]5[C@H]6CC[C@H](C6)N5C(=O)[C@@H](NC(=O)OC)C(C)C)[nH]4)cc3)cc2)[nH]1)C(C)C | MRT [3]: 6.6 h; half-life [4]: 5.29 h; Vd [5]: 0.31 L/kg; clearance [6]: 0.833 mL/min/kg; bioavailability [7]: 35.2%; MRT [8]: 1.4 h; half-life [9]: 1.49 h; Vd [10]: 0.98 L/kg; clearance [11]: 11.7 mL/min/kg |
| 0.009 | 0.5 | COC(=O)N[C@H](C(=O)N1CCC[C@H]1c1nc2ccc(-c3ccc(-c4ccc5nc([C@@H]6CCCN6C(=O)[C@@H](NC(=O)OC)C(C)C)[nH]c5c4)cc3)cc2[nH]1)C(C)C |  |
| 0.007 | 0.071 | COC(=O)N[C@H](C(=O)N1CCC[C@H]1c1nc(-c2ccc3cc(-c4ccc5[nH]c([C@@H]6CCCN6C(=O)[C@@H](NC(=O)OC)C(C)C)nc5c4)ccc3c2)c[nH]1)C(C)C |  |
| 0.007 | 0.17 | COC(=O)N[C@H](C(=O)N1CCC[C@H]1c1ncc(-c2ccc(-c3ccc(-c4ccc5nc([C@@H]6CCCN6C(=O)[C@@H](NC(=O)OC)C(C)C)[nH]c5c4)cc3)cc2)[nH]1)C(C)C | MRT [3]: 3 h; half-life [4]: 2.3 h; Vd [5]: 2.31 L/kg; clearance [6]: 13 mL/min/kg; bioavailability [7]: 11.5%; MRT [8]: 1.71 h; half-life [9]: 1.57 h; Vd [10]: 1.76 L/kg; clearance [11]: 17.3 mL/min/kg |
| 0.006 | 0.16 | COC(=O)N[C@H](C(=O)N1CCC[C@H]1c1ncc(-c2ccc(-c3ccc(-c4ccc5nc([C@@H]6[C@H]7CC[C@H](C7)N6C(=O)[C@@H](NC(=O)OC)C(C)C)[nH]c5c4)cc3)cc2)[nH]1)C(C)C | MRT [3]: 5.47 h; half-life [4]: 4.01 h; Vd [5]: 2.03 L/kg; clearance [6]: 6.67 mL/min/kg; bioavailability [7]: 26.3%; MRT [8]: 2.42 h; half-life [9]: 2.07 h; Vd [10]: 1.81 L/kg; clearance [11]: 12.5 mL/min/kg |
| 0.005 | 0.45 | COC(=O)N[C@H](C(=O)N1CCCC[C@H]1c1ncc(-c2ccc(-c3ccc(-c4cnc([C@@H]5CCCN5C(=O)[C@@H](NC(=O)OC)C(C)C)[nH]4)cc3)cc2)[nH]1)C(C)C |  |
| 0.004 | 0.056 | COC(=O)N[C@H](C(=O)N1CCC[C@H]1c1ncc(-c2ccc3c(c2)C(F)(F)c2cc(-c4ccc5nc([C@@H]6[C@H]7CC[C@H](C7)N6C(=O)[C@@H](NC(=O)OC)C(C)C)[nH]c5c4)ccc2-3)[nH]1)C(C)C | Ratio EC50 (Hepatitis C virus [13]): 14; Ratio EC50 (Hepatitis C virus [14]): 14; EC50 (Hepatitis C virus [15]): 0.784 nM; EC50 (Hepatitis C virus [16]): 0.784 nM |
| 0.004 | 0.11 | COC(=O)N[C@H](C(=O)N1CCC[C@H]1c1nc2ccc(-c3ccc4cc(-c5ccc6nc([C@@H]7CCCN7C(=O)[C@@H](NC(=O)OC)C(C)C)[nH]c6c5)ccc4c3)cc2[nH]1)C(C)C |  |
| 0.003 | 0.2 | COC(=O)N[C@H](C(=O)N1CCC[C@H]1c1ncc(-c2ccc(-c3ccc(-c4ccc5nc([C@@H]6CCCN6C(=O)[C@@H](NC(=O)OC)C(C)C)[nH]c5c4)s3)cc2)[nH]1)C(C)C |  |
| 0.003 | 0.04 | COC(=O)N[C@H](C(=O)N1CCC[C@H]1c1ncc(-c2ccc3c(c2)C(F)(F)c2cc(-c4ccc5nc([C@@H]6CCCN6C(=O)[C@@H](NC(=O)OC)C(C)C)[nH]c5c4)ccc2-3)[nH]1)C(C)C | MRT [3]: 3.69 h; half-life [4]: 2.63 h; Vd [5]: 1.96 L/kg; clearance [6]: 8.83 mL/min/kg; bioavailability [7]: 36.7%; MRT [8]: 2.21 h; half-life [9]: 1.83 h; Vd [10]: 0.93 L/kg; clearance [11]: 7 mL/min/kg |

From ChEMBL document CHEMBL3120075 (J Med Chem, 2014)
